Test results reported in article PMC4996985, “Sequence-Based Screening for Rare Enzymes: New Insights into the World of AMDases Reveal a Conserved Motif and 58 Novel Enzymes Clustering in Eight Distinct Families” (Frontiers in Microbiology, 2016).

Biological target: T1, AmdP (Polymorphum gilvum, UniProt F2IXG8)
T1 construct: gene SL003B_3169; full length, 744 bp codon-adapted synthetic gene, pET-21a NdeI/XhoI, C-terminal His6 tag kept, E. coli BL21, Ni-NTA purified
T1 sequence (F2IXG8 1-247): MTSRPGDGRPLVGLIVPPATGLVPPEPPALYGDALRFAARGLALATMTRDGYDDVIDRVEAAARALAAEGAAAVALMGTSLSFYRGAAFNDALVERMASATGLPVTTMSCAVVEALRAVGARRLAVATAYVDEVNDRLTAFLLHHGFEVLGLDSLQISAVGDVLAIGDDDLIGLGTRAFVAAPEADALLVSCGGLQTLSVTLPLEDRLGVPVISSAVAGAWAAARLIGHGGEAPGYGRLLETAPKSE
Assay: chiral GC of product after derivatisation
Assay type: biochemical
Conditions: 10 mM substrate, 50 mM Tris pH 7.5; substrate contained <4% racemic flurbiprofen

CC(C(=O)O)(C(=O)O)c1ccc(-c2ccccc2)c(F)c1 [2a, flurbiprofen malonate]
chiral GC of product after derivatisation: selectivity of all three AMDases was analyzed with aryl malonic acid derivates
